Results as given in PMC10394516, “The pharmacokinetic profile of brensocatib and its effect on pharmacodynamic biomarkers including NE, PR3, and CatG in various rodent species” (Frontiers in Pharmacology, 2023).

Tests used:
[1] = tested on: PR3; assay: Bone marrow PR3 activity after repeated dosing, C57BL/6 mice; type: in vivo; settings: for Reduction of PR3 activity vs vehicle / Change From Vehicle Control (%) PR3: 7 days
Description: Briefly, animals were weighed and randomized into different treatment groups. In total, three different dosing levels of brensocatib were tested in each species and strain; each QD dosing level was equivalent to 1.5-times the matching daily BID dose. For BID dosing, the second daily dose was administered 8-h post the morning dose. C57BL/6 mice were dosed either BID or QD for 7 consecutive days at 0/0, 0.5/0.75, 2/3, and 20/30 mg/kg/day (BID/QD). BALB/c mice were dosed for 7 consecutive days at 0/0, 0.2/0.3, 2/3, and 20/30 mg/kg/day (BID/QD). SD rats were dosed for 9 consecutive days at 0/0, 0.2/0.3, 2/3, and 20/30 mg/kg/day (BID/QD). Wistar rats were dosed for 7 consecutive days at 0/0, 0.2/0.3, 2/3, and 20/30 mg/kg/day (BID/QD).
At the completion of the study, animals were sacrificed 16–24 h post their final dose. The hind limb bones (femurs and tibias) were collected at necropsy for bone marrow analysis of NSP activities by kinetic enzymatic assays ([Basso et al., 2022]). See section Quantification of Bone Marrow NSP Activities for details.
For the mice, each animal had the femurs and tibias of both hind limbs harvested. For the rat, the femur and tibia from a single hind limb per animal was harvested. Bones were kept on wet ice until processing for bone marrow collection. In brief, bone cutters were used to cut the epiphysis (knobby ends) off the long bones to expose the bone marrow filled cavity. Each bone cavity was then flushed with 5 mL/bone (mouse) or 10 mL/bone (rat) of ice-cold RPMI media through a […] and collected in a 50-mL conical tube. Cells were spun down at 2,500 × g at 4°C for 5 min and the supernatant was aspirated. After which, bone marrow cells were lysed with 1X red blood cell (RBC) lysis buffer (Abcam, ab204733) to eliminate contaminating RBCs and washed with PBS to remove any residual RBC lysis buffer. The resulting white blood cells (WBC) were subsequently lysed with 1% (v/v) Triton X-100 in PBS. Lysates were added to 96-well plates and stored at −80°C until NSP analyses.
Bone marrow lysates prepared as described above were diluted and plated onto 96-well assay plates to quantify NSP activities as described previously ([Basso et al., 2022]). Briefly, peptide substrates for NE (N-Methoxysuccinyl-Ala-Ala-Pro-Val-7-amido-4-methylcoumarin; Sigma; St. Louis, MO; Excitation/Emission at 350/450 nm), PR3 ((7-Methoxycoumarin-4-yl)acetyl-lysyl-(picolinoyl)-Tyr-Asp-Ala-Lys-Gly-Asp-N-3-(2-4-dinitrophenyl)-2-3-diaminopropyonyl-NH2); GenScript; Piscataway, NJ; Excitation/Emission at 340/430 nm), and CatG (N-Succinyl-Ala-Ala-Pro-Phe p nitroanilide; Sigma; Absorbance at 405 nm) were added at a final assay concentration of 100 μM, 40 μM, and 200 μM, respectively, and either fluorescence or absorbance was quantified using a Synergy microplate reader (BioTek; Winooski, VT). The specific NSP activity in each sample was calculated as the total activity minus the activity in the presence of a specific NSP inhibitor (if used), including elastase inhibitor (Abcam) for NE, sivelestat (Abcam) for PR3, and cathepsin G inhibitor I (Cayman Chemical; Ann Arbor, MI) for CatG. NSP concentrations were interpolated based on their activities relative to the standard curves created using active human NE protein (Sigma), active human PR3 protein (Sigma), and active human CatG protein (Sigma), respectively. Due to unavailability of commercial mouse and/or rat NE, PR3, and CatG proteins, the corresponding human proteins were used instead since their catalytic ability is considered to be conserved across species. A portion of each cell lysate sample was retained for protein quantification using a Pierce™ BCA Protein Assay Kit (Thermo Fisher). The NSP activities were normalized for the cell lysate protein concentrations.
The Pierce™ BCA Protein Assay Kit was used to measure the total protein of the samples after lysis to allow for subsequent normalization. […]

[2] = tested on: NSPs (NE, PR3, CatG); assay: PD recovery study, bone marrow NSP activities (all three NSPs), C57BL/6 mice; type: in vivo; settings: after 8 days of 5 mg/kg BID
Description: A PD recovery study was performed in female C57BL/6 mice dosed BID for 8 consecutive days. Mice were dosed by oral gavage either with vehicle (0 mg/kg) or 5 mg/kg brensocatib (BID; 10 mg/kg/day). After 8 consecutive days of dosing, the animals were maintained without further treatment until prescribed sacrifice (days: 1, 3, 6, 8, and 10 days post final dose). Plasma was collected from animals during the first 24 h of dosing at −0.5 (half-hour prior to dosing), 1, 8, 9, and 24 h post initial dose. Note that the 8- and 24-h plasma samples were prior to the afternoon dose and prior to the second day dose, respectively. Plasma was used for PK analysis via LC-MS/MS. […]
Bone marrow lysates prepared as described above were diluted and plated onto 96-well assay plates to quantify NSP activities as described previously ([Basso et al., 2022]). […] The specific NSP activity in each sample was calculated as the total activity minus the activity in the presence of a specific NSP inhibitor (if used), including elastase inhibitor (Abcam) for NE, sivelestat (Abcam) for PR3, and cathepsin G inhibitor I (Cayman Chemical; Ann Arbor, MI) for CatG. […] A portion of each cell lysate sample was retained for protein quantification using a Pierce™ BCA Protein Assay Kit (Thermo Fisher). […]

Cn1c(=O)oc2ccc(-c3ccc(C[C@@H](C#N)NC(=O)[C@@H]4CNCCCO4)cc3)cc21 [brensocatib]
Reduction of PR3 activity vs vehicle ([1]; BID highest dose (20 mg/kg/day)): 80% | Reduction of PR3 activity vs vehicle ([1]; QD highest dose (30 mg/kg/day)): 65% | Combined BID and QD percent reduction, PR3 ([1]; highest dose level 20/30 (BID/QD) mg/kg/day): 71% | Change From Vehicle Control (%) PR3 ([1]; oral BID 0.5 mg/kg/day, 16 h post final dose): 9% (p = 0.8059) | Change From Vehicle Control (%) PR3 ([1]; oral BID 2 mg/kg/day, 16 h post final dose): −44% (p = 0.0041) | Change From Vehicle Control (%) PR3 ([1]; oral BID 20 mg/kg/day, 16 h post final dose): −80% (p < 0.0001) | Change From Vehicle Control (%) PR3 ([1]; oral QD 0.75 mg/kg/day, 24 h post final dose): +2% (p = 0.9977) | Change From Vehicle Control (%) PR3 ([1]; oral QD 3 mg/kg/day, 24 h post final dose): −46% (p = 0.0008) | Change From Vehicle Control (%) PR3 ([1]; oral QD 30 mg/kg/day, 24 h post final dose): −65% (p < 0.0001) | Time to full recovery of NSP activity (visually) [2]: 6–8 days post final dose
